From patent US8486900B2, “Method for preparing a Centella asiatica extract rich in madecassoside and in terminoloside” (Bayer Consumer Care AG, priority 2002, dated 2013)
“And” between values parts separate entries of the source, which are not always exact repeats. Equal values may be shown once.

What was measured:
NFκB = experiment: TNF-α-induced activation of NFκB in nuclei of normal human fibroblasts; type: cell-based; conditions: for NFκB (AU), mean / NFκB (AU), single values / NFκB, % control: TNF-α 25 ng/ml; for NFκB, % control: control with TNF-α = 100
Protocol: This study makes it possible to evaluate the effects of the mixture according to the invention on the activation of NFκB, using a very sensitive specific method based on measuring the binding of the transcription factor NFκB to the consensus oligonucleotide sequence immobilized on a plastic support. Bound NFκB is secondarily recognized by a specific anti-NFκB antibody. This assay was carried out on isolated nuclei of normal human fibroblasts. The culture medium is DMEM, which comprises: • 2 mM L-glutamine • 50 IU/ml penicillin, 50 μg/ml streptomycin • 10% (v/v) fetal calf serum for the preculture and then a switch to serum-free medium The fibroblasts were precultured in 175 cm^2 flasks in DMEM medium containing 10 vol % of FCS until confluency, and the culture medium was then replaced with serum-free DMEM medium. The cells were then cultured in the presence of the products to be assayed or of references, for 1 hour. The proinflammatory agent […] (TNF-α, at 25 ng/ml final concentration; Sigma T0157) was then added to the culture medium and the cells were again incubated for 1 hour at 37° C. and 5% CO2. After incubation, the cells were harvested on ice and the cell nuclei of the various samples were isolated using the Sigma NUC-101 kit according to the protocol recommended by the supplier. The amount of proteins of each nuclear extract was determined using the Biorad 500-0116 assay kit. The amount of activated NFκB bound to the specific oligonucleotide was measured on the same amount of nuclear extract of each sample, i.e. 50 μl, diluted 50/50, after visualization using a specific anti-NFκB antibody. […] AU represents the arbitrary units of NFκB in the extract; this is the difference between the measured value and the background noise.

TIMP-1 = experiment: Production of TIMP-1 by human fibroblasts in collagen gel stimulated with TNF-α; type: cell-based; conditions: for Production of TIMP-1, (+) TNF-α, mean: TNF-α 10 ng/ml
Protocol: (§1) An in vitro experimental approach based on measuring the amounts of MMP-1 and of TIMP-1 released into the culture media by human fibroblasts cultured in the absence and in the presence of the products, and stimulated with TNF-α, is proposed. The study was carried out on human fibroblast cultures established from skin biopsies according to the explant method. The fibroblasts are cultured, according to the techniques used in the laboratory, in DMEM medium (sold under the name Invitrogen™ by the company Life Technologies) supplemented with fetal calf serum (10% FCS) and with antibiotics, at […] in a humid air-CO2 (95%-5%) atmosphere.
(§2) After incubation, the plates are emptied. The cultures are rinsed and then exposed to a solution of TNF-α (10 ng/ml) in the absence (control cultures) or in the presence (treated cultures) of the various concentrations of each product being studied. After the addition of TNF-α, the cultures are returned to the incubator at 37° C. for 24 h. At the end of incubation, the media are removed, centrifuged and aliquoted for assaying of MMP-1 and of TIMP-1.
The amount of TIMP-1, an inhibitor specific for MMP-1, was also measured in the supernatants of the cultures treated with asiaticoside or the madecassoside-terminoloside mixture.

[1] = system: human fibroblasts cultured in a three-dimensional gel of collagen; experiment: Cell viability (Neutral Red assay) of collagen gel fibroblast cultures after TNF-α; type: cell-based; conditions: TNF-α 10 ng/ml, 0.2-1.0 mg/ml
Protocol: (§3) The study was carried out on human fibroblasts cultured in a three-dimensional gel of collagen (dermous equivalent).
(§4) 3. Measurement of cell viability and of the amounts of MMP-1 in the control and treated culture supernatants.
Cell Viability (Neutral Red Assay)

human fibroblasts = experiment: Cytotoxicity, Neutral Red assay on human fibroblasts; conditions: for Viability (24 h) / Viability (48 h): DMSO 1%
Protocol: A stock solution of the product was prepared beforehand in DMSO and then diluted in culture medium in order to obtain the various test solutions (final concentration of DMSO: 1%). A broad range of 8 concentrations [from 5 to 1000 μg/ml] was initially studied in order to close in the maximum NonCytotoxic Dose (NCD).
A stock solution of the product was prepared beforehand in DMSO and then diluted in culture medium in order to obtain the various test solutions (final concentration of the DMSO: 1%). A broad range of 8 concentrations (between […]) was studied on human fibroblasts in order to close in the maximum NonCytotoxic Dose (NCD).

MMP-1 = experiment: TNF-α-induced production of MMP-1 by human fibroblasts in collagen gel (dermis equivalent); type: cell-based; conditions: for Production of MMP-1, (+) TNF-α, mean: TNF-α 10 ng/ml, 24 h pretreatment + 24 h; for decrease in the amount of MMP-1: relative to (+)TNF-α control
Protocol: as §1
Human dermal fibroblasts cultured as a monolayer are detached from their support by trypsinization and suspended in complete medium. After counting, the cell suspension is diluted in culture medium and added, in defined proportions, to a mixture of concentrated culture medium (1.76×DMEM), fetal calf serum (FCS) and type I collagen (acetic acid extract from rat tail tendons). The mixture is then poured, under cold conditions, into 24-well plates in a proportion of 1 ml/well. The dermous equivalents are then placed at 37° C. and incubated for 72 h, in an air-CO2 (95%/5%) atmosphere. The gels gradually contract under the action of the fibroblasts.
72 hours after seeding, the culture medium is removed and replaced with new medium containing the various products being studied (“preventative” treatment). The gels are returned to the incubator at 37° C. and incubated, for 24 hours, in an air-CO2 (95%/5%) atmosphere.
as §2, §3
1. Treatment of cells for 24 h, before induction of MMP-1 with TNF-α.
2. Induction of MMP-1 by the addition of TNF-α (10 ng/ml). Incubation for 24 h.
as §4

PGE-2 = experiment: Effect of interferon-γ on release of PGE-2 by normal human keratinocytes; type: cell-based
Protocol: (§5) The effects of interferon-gamma (IFN-γ) on the production and release of epidermal cytokines was studied on normal human keratinocytes (strain K02-1H4). 4 concentrations of IFN-g were tested:
The effects of IFN-γ on the production and release of PGE-2 was studied under the same experimental conditions as previously described (Table 31).

IL-8 = experiment: Effect of interferon-γ on production and release of IL-8 by normal human keratinocytes; type: cell-based
Protocol: (§6) The study is carried out on normal human keratinocytes. The cells are first treated with 4 concentrations of interferon-gamma (IFN-γ), for 24 hours.
(§7) Next, the inflammation mediators are measured in the control cultures and cultures treated with IFN-γ, by assaying IL-8 and TNF-α in the culture supernatants and by assaying cell proteins. The method of measurement used is the Coomassie blue test; it is a standardized method.
as §5
The effects of IFN-γ on the production and release of IL-8 were studied under the same experimental conditions.

TNF-α = experiment: Effect of interferon-γ on production of TNF-α by normal human keratinocytes; type: cell-based; conditions: for TNF-α, mean: normal human keratinocytes, 24 h
Protocol: as §6, §7

IL-1α = experiment: Effect of interferon-γ on intracellular IL-1α production by normal human keratinocytes; type: cell-based; design: multiplication of the basal amount of IL-1α: dose or concentration left out as unconfirmed
Source text: The effects of interferon-gamma (IFN-γ) on the production and release of epidermal cytokines was studied on normal human keratinocytes (strain K02-1H4).

[2] = Immunomodulatory activity
[3] = K02-1H4, interferon-γ 1000 U/ml
[4] = K02-1H4, interferon-γ 2000 U/ml

## O=C(O)c1cc(/N=N/c2ccc(S(=O)(=O)Nc3ccccn3)cc2)ccc1O [sulfasalazine, Sulfasalazine]
NFκB; 5 mM sulfasalazine
  NFκB (AU), mean: 4.19 AU
  NFκB (AU), single values: 4.93 AU and 4.01 AU and 2.88 AU
  NFκB, % control: 44%

## C[C@H]1[C@H](C)CC[C@]2(C(=O)O[C@@H]3O[C@H](CO[C@@H]4O[C@H](CO)[C@@H](O[C@@H]5O[C@H](C)[C@H](O)[C@@H](O)[C@H]5O)[C@H](O)[C@H]4O)[C@@H](O)[C@H](O)[C@H]3O)CC[C@]3(C)C(=CC[C@@H]4[C@@]5(C)C[C@@H](O)[C@H](O)[C@@](C)(CO)[C@@H]5CC[C@]43C)[C@H]12 [Asiaticoside, asiaticoside]
Solubility
  solubility: organosoluble
TIMP-1; 0.2 mg/ml
  Production of TIMP-1, (+) TNF-α, mean: 51.01 ng TIMP-1/ml
TIMP-1; 0.5 mg/ml
  Production of TIMP-1, (+) TNF-α, mean: 50.36 ng TIMP-1/ml
TIMP-1; 1.0 mg/ml
  Production of TIMP-1, (+) TNF-α, mean: 48.82 ng TIMP-1/ml
TIMP-1; within the range of concentrations tested (0.2-1.0 mg/ml)
  effect with respect to the production of TIMP-1: no effect
[1]
  viability of the treated cultures after treatment with TNF-α: not modified
Human fibroblasts
  Maximum NonCytotoxic Dose (NCD): 1 mg/mL
Human fibroblasts; 48 h, 1 mg/ml
  decrease of cell viability: 12%
Human fibroblasts; 10
  Viability (24 h): 98%
Human fibroblasts; 25
  Viability (24 h): 101%
Human fibroblasts; 50
  Viability (24 h): 101%
Human fibroblasts; 100
  Viability (24 h): 101%
Human fibroblasts; 250
  Viability (24 h): 101%
Human fibroblasts; 500
  Viability (24 h): 97%
Human fibroblasts; 1000
  Viability (24 h): 93%
Human fibroblasts; 48 h, 10
  Viability (48 h): 108%
Human fibroblasts; 48 h, 25
  Viability (48 h): 107%
Human fibroblasts; 48 h, 50
  Viability (48 h): 106%
Human fibroblasts; 48 h, 75
  Viability (48 h): 104%
Human fibroblasts; 48 h, 100
  Viability (48 h): 102%
Human fibroblasts; 48 h, 250
  Viability (48 h): 99%
Human fibroblasts; 48 h, 500
  Viability (48 h): 93%
Human fibroblasts; 48 h, 750
  Viability (48 h): 90%
Human fibroblasts; 48 h, 1000
  Viability (48 h): 88%
Human fibroblasts; contact for 24 h, 5 to 1000 μg/ml
  cytotoxic effect: no significant cytotoxic effect
Human fibroblasts; incubation for 48 h
  nontoxic concentrations: below 1 mg/ml
MMP-1; 0.2 mg/ml
  Production of MMP-1, (+) TNF-α, mean: 9.96 ng MMP-1/ml
MMP-1; 0.5 mg/ml
  Production of MMP-1, (+) TNF-α, mean: 6.18 ng MMP-1/ml
MMP-1; 1.0 mg/ml
  Production of MMP-1, (+) TNF-α, mean: 3.40 ng MMP-1/ml
MMP-1; C1 = 0.2 mg/ml
  decrease in the amount of MMP-1: 18%
MMP-1; C2 = 0.5 mg/ml
  decrease in the amount of MMP-1: 49%
MMP-1; C3 = 1.0 mg/ml
  decrease in the amount of MMP-1: 72%

## Interferon-γ: interferon-gamma used as irritative agent to stimulate keratinocytes
PGE-2; 100 to 2000 U/ml
  stimulation of the production and release of PGE-2: not capable of stimulating
PGE-2; K02-1H4, interferon-γ 100 U/ml
  Extracellular PGE-2, mean: 3.60 pg/μg proteins
PGE-2; K02-1H4, interferon-γ 500 U/ml
  Extracellular PGE-2, mean: 3.45 pg/μg proteins
PGE-2; [3]
  Extracellular PGE-2, mean: 3.48 pg/μg proteins
PGE-2; [4]
  Extracellular PGE-2, mean: 3.80 pg/μg proteins
IL-8; Example 8, interferon 1000 U/ml
  multiplication of the basal amount of IL-8: 26 fold
IL-8; Example 8, interferon 2000 U/ml
  multiplication of the basal amount of IL-8: 38 fold
IL-8; Example 8, normal human keratinocytes, 24 h, interferon-γ 100 U/ml
  IL-8, mean: 0.980 pg/μg proteins
IL-8; Example 8, normal human keratinocytes, 24 h, interferon-γ 500 U/ml
  IL-8, mean: 1.301 pg/μg proteins
IL-8; Example 8, normal human keratinocytes, 24 h, interferon-γ 1000 U/ml
  IL-8, mean: 1.991 pg/μg proteins
IL-8; Example 8, normal human keratinocytes, 24 h, interferon-γ 2000 U/ml
  IL-8, mean: 2.917 pg/μg proteins
IL-8; Example 12, K02-1H4, interferon-γ 100 U/ml
  IL-8, mean: 0.252 pg/μg proteins
IL-8; Example 12, K02-1H4, interferon-γ 500 U/ml
  IL-8, mean: 0.350 pg/μg proteins
IL-8; Example 12, K02-1H4, interferon-γ 1000 U/ml
  IL-8, mean: 0.516 pg/μg proteins
IL-8; Example 12, K02-1H4, interferon-γ 2000 U/ml
  IL-8, mean: 0.671 pg/μg proteins
TNF-α; interferon 1000 U/ml
  multiplication of the basal amount of TNF-α: 3.3 fold
TNF-α; interferon 2000 U/ml
  multiplication of the basal amount of TNF-α: 4.5 fold
TNF-α; interferon-γ 100 U/ml
  TNF-α, mean: 3.198 pg/μg proteins
TNF-α; interferon-γ 500 U/ml
  TNF-α, mean: 8.605 pg/μg proteins
TNF-α; interferon-γ 1000 U/ml
  TNF-α, mean: 10.773 pg/μg proteins
TNF-α; interferon-γ 2000 U/ml
  TNF-α, mean: 14.545 pg/μg proteins
IL-1α; IFN-γ 1000
  multiplication of the basal amount of IL-1α: 2.6 fold
IL-1α; IFN-γ 2000
  multiplication of the basal amount of IL-1α: 3.8 fold
IL-1α; K02-1H4, interferon-γ 100 U/ml
  IL-1α (intracellular), mean: 6.80 pg/μg proteins
IL-1α; K02-1H4, interferon-γ 500 U/ml
  IL-1α (intracellular), mean: 8.29 pg/μg proteins
IL-1α; [3]
  IL-1α (intracellular), mean: 11.21 pg/μg proteins
IL-1α; [4]
  IL-1α (intracellular), mean: 12.48 pg/μg proteins

## C[C@@H]1C[C@H]2[C@@H]3CCC4=CC(=O)C=C[C@]4(C)[C@@]3(F)[C@@H](O)C[C@]2(C)[C@@]1(O)C(=O)CO [dexamethasone, Dexamethasone]
NFκB; 0.1 μM
  nuclear translocation of NFκB induced by TNF-α: did not inhibit
NFκB; 0.1 μM dexamethasone
  NFκB (AU), mean: 9.46 AU
  NFκB (AU), single values: 10.94 AU and 7.3 AU and 9.90 AU and 9.67 AU
  NFκB, % control: 99%

## terminolic acid
[2]
  immunomodulatory activity: no immunomodulatory activity
